≈ marks a conversion by molar mass, not a printed value.
Tests used:
[1] = tested on: clinical isolates carrying AAC(3)-IV; assay: MIC broth microdilution, AAC(3)-IV; format: cell-based; conditions: clinical isolates, IMM Univ. Zurich; AAC(3)-IV; read-out: MIC AAC(3)-IV
Summary of the method: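 MICs obtained by broth microdilution following CLSI M07-A10, tested against clinical isolates from the Institute of Medical Microbiology, Univ. Zurich; values in μg/ml.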

[2] = tested on: clinical isolates carrying APH(3′)-I; assay: MIC broth microdilution, APH(3′)-I; format: cell-based; conditions: IMM Univ. Zurich
[3] = tested on: clinical isolates carrying APH(3′)-II; assay: MIC broth microdilution, APH(3′)-II; format: cell-based; conditions: clinical isolates, IMM Univ. Zurich; APH(3′)-II; read-out: MIC APH(3′)-II
[4] = tested on: clinical isolates carrying APH(3′)-III; assay: MIC broth microdilution, APH(3′)-III; format: cell-based; conditions: IMM Univ. Zurich
[5] = tested on: clinical isolates carrying APH(3′)-VI; assay: MIC broth microdilution, APH(3′)-VI; format: cell-based; conditions: IMM Univ. Zurich
[6] = tested on: bacterial ribosomes; assay: in-vitro translation assay, bacterial ribosomes; format: biochemical
Summary of the method: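 Inhibitory potency was determined as IC50 in in-vitro translation systems based on bacterial ribosomes, human chimeric (mitochondrial-type) ribosomes or rabbit reticulocyte (cytosolic) ribosomes.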

[7] = tested on: human mitochondrial ribosomes; assay: in-vitro translation assay, human mitochondrial (human chimeric) ribosomes; format: biochemical
Summary of the method: (§1)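 Each ribosome preparation (bacterial, human chimeric as the mitochondrial model, rabbit reticulocyte as the cytosolic model) drives in-vitro translation with the test compound present. Inhibition of translation gives the IC50.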

[8] = tested on: human cytosolic ribosomes; assay: in-vitro translation assay, human cytosolic ribosomes; format: biochemical
Summary of the method: as §1

[9] = tested on: AG212, Escherichia coli ATCC25922; assay: MIC reference strain AG212; format: cell-based; conditions: Escherichia coli; reference strain ATCC25922; read-out: MIC AG212 E. coli
Summary of the method: (§2)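 Read-out is the minimal inhibitory concentration, obtained through broth microdilution done according to the CLSI method for aerobes.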

[10] = tested on: AG215, Klebsiella pneumonia; assay: MIC reference strain AG215; format: cell-based; conditions: Klebsiella pneumoniae, reference strain; read-out: MIC AG215 K. pneumonia
Summary of the method: as §2

[11] = tested on: AG290, Enterobacter cloacae; assay: MIC reference strain AG290; format: cell-based; conditions: Enterobacter cloacae; reference strain; read-out: MIC AG290 E. cloacae
Summary of the method: as §2

[12] = tested on: AG220, Pseudomonas aeruginosa ATCC27853; assay: MIC reference strain AG220; format: cell-based; conditions: Pseudomonas aeruginosa, ATCC27853, reference strain ATCC27853; read-out: MIC AG220 P. aeruginosa
Summary of the method: as §2

[13] = tested on: AG225, Acinetobacter baumannii pittii; assay: MIC reference strain AG225; format: cell-based; conditions: Acinetobacter baumannii, reference strain; read-out: MIC AG225 A. baumannii
Summary of the method: as §2

[14] = tested on: AG001 E. coli WT; assay: Antibacterial activity, clinical isolate AG001; format: cell-based; design: unit not given here
Summary of the method: (§3)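 Values are minimal inhibitory concentrations, obtained by serial dilution of compound in broth according to CLSI guidance for aerobes.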

[15] = tested on: AG055 E. coli WT; assay: Antibacterial activity, clinical isolate AG055; format: cell-based; design: unit not given here
Summary of the method: as §3

[16] = tested on: AG003 E. coli AAC(3)-II; assay: Antibacterial activity, clinical isolate AG003; format: cell-based
Summary of the method: as §3

[17] = tested on: AG173 E. coli AAC(3)-IV; assay: Antibacterial activity, clinical isolate AG173; format: cell-based
Summary of the method: as §3

[18] = tested on: AG163 E. coli APH(3′)-I; assay: Antibacterial activity, clinical isolate AG163; format: cell-based
Summary of the method: as §3

[19] = tested on: AG038 MRSA; assay: Antibacterial activity, clinical isolate AG038; format: cell-based; design: unit not given here
Summary of the method: as §3

[20] = tested on: AG039 MRSA AAC(6′)-I ANT(4′)-I; assay: Antibacterial activity, clinical isolate AG039; format: cell-based
Summary of the method: as §3

[21] = tested on: AG042 MRSA AAC(6′)-I ANT(4′)-I APH(2′); assay: Antibacterial activity, clinical isolate AG042; format: cell-based; design: unit not given here
Summary of the method: as §3

[22] = tested on: AG031 P. aer. APH(3′)-II; assay: Antibacterial activity, clinical isolate AG031; format: cell-based; design: unit not given here
Summary of the method: as §3

[23] = tested on: AG032 P. aer. APH(3′)-II; assay: Antibacterial activity, clinical isolate AG032; format: cell-based; design: unit not given here
Summary of the method: as §3

[24] = tested on: AG033 P. aer. APH(3′)-II AAC(6′)-I; assay: Antibacterial activity, clinical isolate AG033; format: cell-based; design: unit not given here
Summary of the method: as §3

[25] = tested on: Engineered E. coli pH430 WT; assay: Activity, engineered E. coli pH430 WT; format: cell-based; conditions: wild type
Summary of the method: (§4)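 Read-out is the minimal inhibitory concentration, obtained in broth microdilution run according to CLSI guidelines (M07-A10).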

[26] = tested on: Engineered E. coli AG103 armA; assay: Activity against G1405-methylated 16S-rRNA, E. coli AG103 armA; format: cell-based
Summary of the method: as §4

[27] = tested on: Engineered E. coli pH424 armA; assay: Activity against G1405-methylated 16S-rRNA, E. coli pH424 armA; format: cell-based
Summary of the method: as §4

[28] = tested on: Engineered E. coli pH425 rmtB; assay: Activity against G1405-methylated 16S-rRNA, E. coli pH425 rmtB; format: cell-based
Summary of the method: as §4

[29] = tested on: Engineered E. coli pH426 rmtC; assay: Activity against G1405-methylated 16S-rRNA, E. coli pH426 rmtC; format: cell-based
Summary of the method: as §4

[30] = tested on: Engineered E. coli pH427 rmtF; assay: Activity against G1405-methylated 16S-rRNA, E. coli pH427 rmtF; format: cell-based
Summary of the method: as §4

[31] = tested on: E. coli AG153 AAC(3)-II APH(3′)-II rmtB; assay: Activity against G1405-methylated 16S-rRNA, clinical isolate AG153; format: cell-based
Summary of the method: as §4

[32] = tested on: K. pneum. AG269 AAC(3)-II AAC(6′)-I rmtB; assay: Activity against G1405-methylated 16S-rRNA, clinical isolate AG269; format: cell-based
Summary of the method: as §4

[33] = tested on: Enterob. AG302 AAC(3)-II AAC(6′)-I rmtC; assay: Activity against G1405-methylated 16S-rRNA, clinical isolate AG302; format: cell-based
Summary of the method: as §4

[34] = tested on: A baum. AG227 APH(3′)-I armA; assay: Activity against G1405-methylated 16S-rRNA, clinical isolate AG227; format: cell-based
Summary of the method: as §4

[35] = tested on: Enterobacteriaceae, Pseudomonas, Acinetobacter, and Mycobacteria; assay: Antibacterial potency, Tables 4+5 overall; format: cell-based; conditions: against Enterobacteriaceae, Mycobacteria (Tables 4+5)
Source text: Minimal inhibitory concentrations (MIC) have been determined by broth microdilution assays (CLSI. Methods for Dilution Antimicrobial Susceptibility Tests for Bacteria That Grow Aerobically; Approved Standard—Tenth Edition. CLSI document M07-A10. Wayne, Pa.: Clinical and Laboratory Standards Institute; 2015.).

CNC1C(OC2OC(CO)C(N)C(O)C2O)OC2CC(N)C(OC3C(N)CC(N)C(O)C3OC3OC(CN)C(OCCN)C3O)OC2C1O [DC185, 5-O-β-[5-Amino-3-O-(2-aminoethyl)-5-deoxy-D-ribofuranosyl] apramycin]
MIC [1]: > 32 µg/mL | MIC [2]: 1 µg/mL (≈ 1.4 µM) | MIC [3]: 1 µg/mL (≈ 1.4 µM) | MIC [4]: 0.25 µg/mL (≈ 0.35 µM) | MIC [5]: 2 µg/mL (≈ 2.8 µM) | IC50 [6]: 0.03 µM | IC50 [7]: 34 µM | IC50 [8]: 26 µM | MIC [9]: 2 µg/mL | MIC [10]: 0.5 to 1 µg/mL | MIC [11]: 1 µg/mL | MIC [12]: 1 to 2 µg/mL | MIC [13]: 2 µg/mL | Antibacterial activity AG001 E. coli WT [14]: 2 | Antibacterial activity AG055 E. coli WT [15]: 2 | Antibacterial activity AG003 E. coli AAC(3)-II [16]: 1-2 | Antibacterial activity AG173 E. coli AAC(3)-IV [17]: 4 | Antibacterial activity AG163 E. coli APH(3′)-I [18]: 2 | Antibacterial activity AG038 MRSA [19]: 1 | Antibacterial activity AG039 MRSA AAC(6′)-I ANT(4′)-I [20]: 1 | Antibacterial activity AG042 MRSA AAC(6′)-I ANT(4′)-I APH(2′) [21]: 1 | Antibacterial activity AG031 P. aer. APH(3′)-II [22]: 2 | Antibacterial activity AG032 P. aer. APH(3′)-II [23]: 2 | Antibacterial activity AG033 P. aer. APH(3′)-II AAC(6′)-I [24]: 2 | Activity E. coli pH430 WT [25]: 1 | Activity E. coli AG103 armA [26]: 0.5-1 | Activity E. coli pH424 armA [27]: 2 | Activity E. coli pH425 rmtB [28]: 2 | Activity E. coli pH426 rmtC [29]: 2 | Activity E. coli pH427 rmtF [30]: 2 | Activity E. coli AG153 AAC(3)-II APH(3′)-II rmtB [31]: 4 | Activity K. pneum. AG269 AAC(3)-II AAC(6′)-I rmtB [32]: 1 | Activity Enterob. AG302 AAC(3)-II AAC(6′)-I rmtC [33]: 1 | Activity A baum. AG227 APH(3′)-I armA [34]: 2 | antibacterial potency [35]: increased antibacterial potency
